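Cultured in 96-well plates, cells were exposed to test compound for 48 hours across five concentrations. Abbreviation: GI50, concentration required for 50% inhibition of growth.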 Calls of active or inactive are those of the source. Rule as the data show it: active = GI50 up to about 1.1 µM and inactive = higher.

Assay in all cases: NCI-60 cell line screen, 48 h
Assay [1] has as its system SN12C.
For assay [2], the system named is Malme-3M.
Assay [3] deals with SK-OV-3.
Assay [4] concerns M19-MEL.
The subject of assay [5] is HCC 2998.
For assay [6], the system named is UACC-257.
Assay [7] has as its system OVCAR-5.
Assay [8] relates to RXF 393.
Assay [9] has as its system UACC-62.
For assay [10], the system named is CCRF-CEM.
The subject of assay [11] is SNB-75.
The subject of assay [12] is NCI-H460.
The subject of assay [13] is NCI-H226.
Assay [14] relates to OVCAR-3.
Assay [15] relates to U-251.
In assay [16] the test system is MDA-N.
The subject of assay [17] is SNB-19.
The test system of assay [18] is BT-549.
Assay [19] deals with HOP-92.
Assay [20] has as its system Hs-578T.

Take `O=C(CSc1nnc(Cc2ccccc2)o1)Nc1cccc([N+](=O)[O-])c1`: the GI50 in assay [1], in assay [2], in assay [3], in [4], in [5] and in assay [6] was > 100 µM (inactive) throughout. Moreover, the GI50 was > 100 µM (inactive) in [7]; > 100 µM (inactive) in assay [8]; > 100 µM (inactive) in assay [9]; > 100 µM (inactive) in assay [10]; 58.5 µM (inactive) in [11]; > 100 µM (inactive) in [12]. In addition, the GI50 in assay [13], in assay [14] and in [15] was > 100 µM (inactive) each time.
For `O=c1c2c3c(sc2nc2n1NC=NN2)CCCC3`, the GI50 in assay [1] was 17.9 µM (inactive); in assay [2], 21.4 µM (inactive); in [3], 42.8 µM (inactive); in assay [5], 24.4 µM (inactive); in [16], 16 µM (inactive); in assay [17] it was 42.7 µM (inactive). Moreover, the GI50 in assay [18] is 17.5 µM (inactive); in [19], 18.1 µM (inactive); in assay [6], 19.9 µM (inactive); in assay [7], 18.2 µM (inactive); in [8] it was 25.2 µM (inactive); in assay [20], 21.8 µM (inactive). Also, the GI50 was 17.6 µM (inactive) in assay [9]; 0.731 µM (active) in assay [10]; 23.8 µM (inactive) in [11]; 20.2 µM (inactive) in assay [12]; 17.3 µM (inactive) in [13]; 1.28 µM (inactive) in assay [14]. In assay [15], the GI50 is 16 µM (inactive).
Take `CCOC(=O)C1(C#N)C(c2ccccc2)CC(O)(c2ccc([N+](=O)[O-])cc2)C(C(=O)c2ccc([N+](=O)[O-])cc2)C1c1ccccc1` (centres undefined): the GI50 in assay [1] was > 100 µM (inactive); in assay [2] it was > 100 µM (inactive); in assay [3], > 100 µM (inactive); in assay [4] it was > 100 µM (inactive); in assay [5] it was > 100 µM (inactive); in [17], 32.2 µM (inactive). In addition, the GI50 was > 100 µM (inactive) in assay [6]; > 100 µM (inactive) in [7]; 15.5 µM (inactive) in assay [8]; > 100 µM (inactive) in assay [9]; > 100 µM (inactive) in assay [10]; 21 µM (inactive) in assay [11]. Further, the GI50 in assay [12], in assay [13], in [14] and in assay [15] was > 100 µM (inactive) in each case.
In the case of `Cc1c(C)c2cc3c(=O)c(CCl)coc3c(C)c2oc1=O`, the GI50 in [1], in [2], in assay [3], in [4], in [5] and in assay [17] was > 100 µM (inactive) in each case. Besides, the GI50 in [6] was > 100 µM (inactive); in assay [7] it was > 100 µM (inactive); in assay [8] it was 57 µM (inactive); in assay [9], > 100 µM (inactive); in assay [10], 48.3 µM (inactive); in assay [11] it was 76.4 µM (inactive). Besides, the GI50 in [12], in assay [13], in assay [14] and in [15] was > 100 µM (inactive) throughout.
In the case of `COC(=O)C(Cc1nc2ccc(Cl)cc2nc1O)/C(=N/O)C(=O)Nc1cccc(Cl)c1C` (centres undefined), the GI50 in assay [1], in assay [2], in [3], in assay [4], in [5] and in assay [17] was > 100 µM (inactive) throughout. The GI50 in assay [6] is > 100 µM (inactive); in assay [7], > 100 µM (inactive); in assay [8], 88.1 µM (inactive); in [9], > 100 µM (inactive); in assay [10] it was > 100 µM (inactive); in assay [11] it was 65.6 µM (inactive). Further, the GI50 in [12], in assay [13], in assay [14] and in assay [15] was > 100 µM (inactive) throughout.
Regarding `O=C1Sc2ccccc2NC1=C(C(=O)c1ccccc1)C(=O)c1ccccc1`, the GI50 in assay [1] was 18.2 µM (inactive); in [2], 41.2 µM (inactive); in assay [3], 21.7 µM (inactive); in assay [5] it was 19.4 µM (inactive); in assay [16] it was 33.7 µM (inactive); in assay [17], 33 µM (inactive). The GI50 in assay [18] is 35.9 µM (inactive); in [19], 36.6 µM (inactive); in assay [6], 17.5 µM (inactive); in [7], 47.1 µM (inactive); in assay [8], 47.1 µM (inactive); in assay [20] it was 62.5 µM (inactive). In addition, the GI50 in [9] is 27 µM (inactive); in assay [10] it was 1.18 µM (inactive); in assay [11], 31.6 µM (inactive); in [12] it was 9.95 µM (inactive); in assay [13], 19.4 µM (inactive); in [14] it was 5.18 µM (inactive). The GI50 in assay [15] is 16 µM (inactive).
As to `O=c1[nH]c(NCc2ccncc2)nc2[nH]cnc12`, the GI50 in assay [1], in assay [2], in assay [3], in assay [5], in [16] and in assay [17] was > 100 µM (inactive) each time. Further, the GI50 in assay [18], in [19], in assay [6], in assay [7], in [8] and in assay [20] was > 100 µM (inactive) in each case. Besides, the GI50 in assay [9], in assay [10], in assay [11], in [12], in assay [13] and in assay [14] was > 100 µM (inactive) in each case. Further, in assay [15], the GI50 is > 100 µM (inactive).
In the case of `C/C1=C\CC/C(C)=C/C=C(/C(C)C)CC/C(C(=O)O)=C/CC1` [CROTOCEMBRANEIC ACID], the GI50 in [1] is 45.3 µM (inactive); in [2], 70.1 µM (inactive); in assay [3], 35.5 µM (inactive); in assay [5], 37.6 µM (inactive); in assay [16], 59 µM (inactive); in [17], 53.3 µM (inactive). Further, the GI50 in assay [18] is 61.5 µM (inactive); in assay [19], 92.3 µM (inactive); in assay [6], 82.8 µM (inactive); in [7], > 100 µM (inactive); in assay [8] it was 29.4 µM (inactive); in assay [20] it was 72.1 µM (inactive). Moreover, the GI50 in [9] was 25.8 µM (inactive); in assay [10], 30.5 µM (inactive); in [11], 77.3 µM (inactive); in assay [12], 34.8 µM (inactive); in assay [13] it was 33 µM (inactive); in assay [14] it was 22.9 µM (inactive). In addition, the GI50 in assay [15] was 35.1 µM (inactive).

(Values after ChEMBL document CHEMBL1201862, “PubChem BioAssay data set” (2004).)
